Reference: patent publication US20250152585A1, “PHARMACEUTICAL COMPOUND” (Duke Street Bio Limited, priority 2022, published 2025)
Read-outs that look alike come from different tables or passages of the source.

Experiments:
[1] = target: T1, N-terminally FLAG-tagged PARP2 (amino acids 1-583) (Homo sapiens, UniProt Q9UGN5); assay: PARP2 probe displacement HTRF assay; type: binding; conditions: binned Kd
T1 construct: N-terminally FLAG-tagged PARP2 (amino acids 1-583)
Experimental: Data analysis was performed identical as for PARP1.

[2] = target: T2, full length N-terminally FLAG-tagged PARP1 (Homo sapiens, UniProt P09874); assay: PARP1 probe displacement HTRF assay; conditions: for Selectivity: PARP1 over PARP2, ratio Kd (PARP2)/Kd (PARP1); for Kd: binned Kd
[3] = target: T2, full length N-terminally FLAG-tagged PARP1; assay: PARP1 biochemical DELFIA assay (auto-PARylation); parameters: recombinant full length human N-terminally FLAG-tagged PARP1
[4] = read-out: PARP1 HTRF, PARP1 probe displacement HTRF
[5] = binned IC50, PARP1 biochemical DELFIA assay
[6] = PARP1 HTRF, PARP1 probe displacement HTRF
[7] = read-out: PARP1 HTRF, probe displacement HTRF
[8] = binned IC50, biochemical auto-PARylation assay

T1 sequence (Q9UGN5 whole entry, the tested form may be a part): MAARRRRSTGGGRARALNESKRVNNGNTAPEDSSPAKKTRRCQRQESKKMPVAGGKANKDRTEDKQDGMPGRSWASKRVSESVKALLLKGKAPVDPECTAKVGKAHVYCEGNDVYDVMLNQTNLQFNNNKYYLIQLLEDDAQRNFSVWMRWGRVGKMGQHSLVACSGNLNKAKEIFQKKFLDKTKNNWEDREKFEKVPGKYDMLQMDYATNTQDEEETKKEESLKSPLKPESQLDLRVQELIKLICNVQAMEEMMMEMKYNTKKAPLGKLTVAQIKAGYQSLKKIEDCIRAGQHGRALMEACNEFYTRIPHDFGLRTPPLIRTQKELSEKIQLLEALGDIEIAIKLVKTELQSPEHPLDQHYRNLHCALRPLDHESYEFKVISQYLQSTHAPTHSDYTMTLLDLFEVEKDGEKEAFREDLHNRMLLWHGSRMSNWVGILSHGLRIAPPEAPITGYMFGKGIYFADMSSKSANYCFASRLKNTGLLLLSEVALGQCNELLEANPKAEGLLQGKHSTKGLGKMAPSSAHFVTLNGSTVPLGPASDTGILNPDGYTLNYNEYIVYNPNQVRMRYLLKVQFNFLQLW
T2 sequence (P09874 whole entry): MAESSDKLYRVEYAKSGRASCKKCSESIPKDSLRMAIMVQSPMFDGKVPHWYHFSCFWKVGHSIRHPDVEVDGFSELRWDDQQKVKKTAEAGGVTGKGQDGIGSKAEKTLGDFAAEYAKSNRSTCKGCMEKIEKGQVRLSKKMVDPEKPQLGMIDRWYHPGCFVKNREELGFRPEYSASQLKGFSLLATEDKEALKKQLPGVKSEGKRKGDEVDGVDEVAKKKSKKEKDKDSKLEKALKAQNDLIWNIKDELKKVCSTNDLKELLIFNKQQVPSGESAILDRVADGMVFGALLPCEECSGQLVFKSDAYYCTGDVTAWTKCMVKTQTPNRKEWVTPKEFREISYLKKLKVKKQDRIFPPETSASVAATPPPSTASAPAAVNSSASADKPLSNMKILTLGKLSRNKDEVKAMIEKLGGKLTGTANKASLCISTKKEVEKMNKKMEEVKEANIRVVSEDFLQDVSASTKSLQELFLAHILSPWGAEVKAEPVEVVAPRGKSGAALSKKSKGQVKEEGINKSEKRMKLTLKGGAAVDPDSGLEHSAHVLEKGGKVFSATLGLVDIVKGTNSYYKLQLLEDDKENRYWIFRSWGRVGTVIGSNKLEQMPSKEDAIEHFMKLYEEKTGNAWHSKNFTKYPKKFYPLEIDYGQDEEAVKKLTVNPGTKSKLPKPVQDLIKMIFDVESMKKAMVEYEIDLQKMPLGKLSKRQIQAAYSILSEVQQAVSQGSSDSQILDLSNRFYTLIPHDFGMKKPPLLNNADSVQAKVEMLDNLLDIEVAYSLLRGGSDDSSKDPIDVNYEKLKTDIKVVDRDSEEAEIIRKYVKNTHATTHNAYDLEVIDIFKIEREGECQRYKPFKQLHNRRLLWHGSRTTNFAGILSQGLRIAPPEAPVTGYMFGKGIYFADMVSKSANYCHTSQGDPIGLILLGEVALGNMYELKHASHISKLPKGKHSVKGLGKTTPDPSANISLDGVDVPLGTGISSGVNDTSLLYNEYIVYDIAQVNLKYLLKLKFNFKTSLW

SMILES	Kd ([1]; PARP2 probe displacement HTRF) [nM]	IC50 [3, 5] [nM]	Selectivity ([2]; probe displacement HTRF)	further results
CCc1cnc(C2CCN(C3CCC(F)(F)CC3)C2)[nH]c1=O (single isomer, unassigned) [Compound 38a]	1000 to 10000	1000 to 10000	− (− indicates a value of less than 10)	Kd [2, 4]: 1000 to 10000 nM
CNC(=O)c1ccc(N2CCC(C(=O)N3CCC(c4nc5ccccc5c(=O)[nH]4)CC3)CC2)cn1 [Compound 36]	> 10000	< 10	+++ (+++ indicate a value of at least 100)	Kd [2, 6]: < 10 nM
CNC(=O)c1ccc(N2CCC(N3CCC(C)(c4nc5ccccc5c(=O)[nH]4)C3)CC2)cn1 (single isomer, unassigned) [Compound 67b]	1000 to 10000	100 to 1000	+ (+ indicates a value of 10 to less than 50)	Kd [2, 4]: 100 to 1000 nM
CNC(=O)c1ccc(OCCN2CCC(c3nc4ccccc4c(=O)[nH]3)CC2)cn1 [Compound 63]	1000 to 10000	< 10	++ (++ indicates a value of 50 to less than 100)	Kd [2, 6]: 10 to 100 nM
CNC(=O)c1ccc(N2CCC(N3CCC(c4ccc(CC5CC5)c(=O)[nH]4)C3)CC2)c(F)n1 (single isomer, unassigned) [Compound 313a]			+++ (+++ indicate a value of at least 100)	Kd ([1]; probe displacement HTRF): > 10000 nM; Kd [2, 7]: 10 to 100 nM; IC50 [3, 8]: 10 to 100 nM
Cc1n[nH]c(-c2ccc(N3CCC(N4CCC(c5nc6ccccc6c(=O)[nH]5)C4)CC3)cn2)n1 (racemic) [Compound 275rac]			+ (+ indicates a value of 10 to less than 50)	Kd ([1]; probe displacement HTRF): 100 to 1000 nM; Kd [2, 7]: < 10 nM; IC50 [3, 8]: < 10 nM
CNC(=O)c1ccc(N2CC(N3CCC(c4nc5ccccc5c(=O)[nH]4)C3)C2)cn1 (single isomer, unassigned) [Compound 61b]	1000 to 10000	< 10	+++ (+++ indicate a value of at least 100)	Kd [2, 4]: < 10 nM
CC(=O)Nc1ccc(N2CCC(N3CCC(c4cc5ccccc5c(=O)[nH]4)C3)CC2)cn1 (single isomer, unassigned) [Compound 306b]			+++ (+++ indicate a value of at least 100)	Kd ([1]; probe displacement HTRF): 100 to 1000 nM; Kd [2, 7]: < 10 nM; IC50 [3, 8]: < 10 nM
CCc1ccc(C2CCN(C3CCN(c4ccc(C#N)cc4)CC3)C2)[nH]c1=O (single isomer, unassigned) [Compound 317a]			− (− indicates a value of less than 10)	Kd ([1]; probe displacement HTRF): 1000 to 10000 nM; Kd [2, 7]: 100 to 1000 nM; IC50 [3, 8]: 10 to 100 nM
CCNC(=O)c1ccc(N2CCC(N3CCC(c4nc5ccccc5c(=O)[nH]4)C3)CC2)cn1 (single isomer, unassigned) [Compound 111b]	100 to 1000	< 10	+++ (+++ indicate a value of at least 100)	Kd [2, 4]: < 10 nM
O=C(NCC(F)(F)F)c1ccc(N2CCC(N3CCCC(c4nc5ccccc5c(=O)[nH]4)C3)CC2)cn1 (single isomer, unassigned) [Compound 115b]	1000 to 10000	10 to 100	+++ (+++ indicate a value of at least 100)	Kd [2, 4]: 10 to 100 nM
CNC(=O)c1ccc(N2CCC(N3CCC(c4cc5ncc(F)cc5c(=O)[nH]4)C3)CC2)c(F)n1 (single isomer, unassigned) [Compound 324a]			+++ (+++ indicate a value of at least 100)	Kd ([1]; probe displacement HTRF): > 10000 nM; Kd [2, 7]: < 10 nM; IC50 [3, 8]: < 10 nM
CCc1ccc(C2CCN(C3CCN(c4ccc(C#N)cc4Cl)CC3)C2)[nH]c1=O (single isomer, unassigned) [Compound 377b]			+++ (+++ indicate a value of at least 100)	Kd ([1]; probe displacement HTRF): 1000 to 10000 nM; Kd [2, 7]: < 10 nM; IC50 [3, 8]: < 10 nM
CCc1ccc(C2CCN(C3CCN(c4cnc(C(=O)NC)nc4C(F)(F)F)CC3)C2)[nH]c1=O (racemic) [Compound 278rac]			+++ (+++ indicate a value of at least 100)	Kd ([1]; probe displacement HTRF): > 10000 nM; Kd [2, 7]: 10 to 100 nM; IC50 [3, 8]: 10 to 100 nM
CCc1cnc(C2CCN(C3CCN(c4ccc(C(=O)NC)nc4)CC3)CC2)[nH]c1=O [Compound 19]		1000 to 10000		
CNC(=O)c1ccc(N2CCC(N3CCC(c4ncc(C)c(=O)[nH]4)C3)CC2)cn1 (single isomer, unassigned) [Compound 35a]		100 to 1000		
CNC(=O)c1ccc(N2CC(N3CCCC(c4nc5ccccc5c(=O)[nH]4)C3)C2)cn1 (single isomer, unassigned) [Compound 23a]		100 to 1000		
CCc1cnc(C2CCN(C3CCC(F)(F)CC3)CC2)[nH]c1=O [Compound 21]		1000 to 10000		
CNC(=O)c1ccc(N2CCC(n3ccc(-c4nc5ccccc5c(=O)[nH]4)c3)CC2)cn1 [Compound 18]		100 to 1000		

SMILES	Kd ([1]; PARP2 probe displacement HTRF) [nM]	IC50 [3, 5] [nM]	Selectivity ([2]; probe displacement HTRF)	further results
CCc1cnc(C2CCCN(C3CCC(F)(F)CC3)C2)[nH]c1=O (single isomer, unassigned) [Compound 24a]		1000 to 10000		
CNC(=O)c1ccc(N2CCC(N3CCCC(c4ncc(C)c(=O)[nH]4)C3)CC2)cn1 (single isomer, unassigned) [Compound 33a]		> 10000		
O=c1[nH]c(C2CCCN(C3CCC(F)(F)CC3)C2)nc2ccccc12 (single isomer, unassigned) [Compound 3b]		100 to 1000		
CCc1cnc(C2CCCN(C3CCN(c4ccc(C(=O)NC)nc4)CC3)C2)[nH]c1=O (single isomer, unassigned) [Compound 31a]		1000 to 10000		
CNC(=O)c1ccc(N2CCC(CN3CCC(c4ncc(C)c(=O)[nH]4)CC3)CC2)cn1 [Compound 30]		100 to 1000		
CNC(=O)c1ccc(OCCCN2CCCC(c3nc4ccccc4c(=O)[nH]3)C2)cn1 (single isomer, unassigned) [Compound 7b]		100 to 1000		
CCc1cnc(-c2ccn(C3CCN(c4ccc(C(=O)NC)nc4)CC3)n2)[nH]c1=O [Compound 25]		100 to 1000		
CNC(=O)c1ccc(N2CCC(n3ccc(-c4nc5ccccc5c(=O)[nH]4)n3)CC2)cn1 [Compound 15]		100 to 1000		
CCc1cnc(C2CCCN(C3CCC(F)(F)CC3)C2)[nH]c1=O (single isomer, unassigned) [Compound 24b]		1000 to 10000		
CCc1cnc(-c2ccn(C3CCN(c4ccc(C(=O)NC)nc4)CC3)c2)[nH]c1=O [Compound 22]		1000 to 10000		
CNC(=O)c1ccc(OCCN2CCCC(Cc3nc4ccccc4c(=O)[nH]3)C2)cn1 (single isomer, unassigned) [Compound 14a, N-methyl-5-(2-(3-((4-oxo-3,4-dihydroquinazolin-2-yl)methyl)piperidin-1-yl)ethoxy)picolinamide]		1000 to 10000		
CNC(=O)c1ccc(N(C)CCN2CCCC(Cc3nc4ccccc4c(=O)[nH]3)C2)cn1 (single isomer, unassigned) [Compound 13a]		1000 to 10000		
CNC(=O)c1ccc(N(C)CCCN2CCC(c3nc4ccccc4c(=O)[nH]3)CC2)cn1 [Compound 12]		100 to 1000		
CNC(=O)c1ccc(N2CC(N3CCC(c4nc5ccccc5c(=O)[nH]4)CC3)C2)cn1 [Compound 28]		100 to 1000		
CNC(=O)c1ccc(N2CCC(c3nc4ccccc4c(=O)[nH]3)CC2)cn1 [Compound 5]		1000 to 10000		
CCc1cnc(C2CCN(CC3CCN(c4ccc(C(=O)NC)nc4)CC3)CC2)[nH]c1=O [Compound 29]		1000 to 10000		
O=c1[nH]c(C2CCCN(C3CCC(F)(F)CC3)C2)nc2ccccc12 (single isomer, unassigned) [Compound 3a]		100 to 1000		
O=c1[nH]c(C2CCN(C3CCC(F)(F)CC3)C2)nc2ccccc12 (single isomer, unassigned) [Compound 4b]		100 to 1000		

Second part, led by results:

Kd ([1]; PARP2 probe displacement HTRF) [nM]	IC50 [3, 5] [nM]	SMILES	Selectivity ([2]; probe displacement HTRF)	further results
> 10000	< 10	CNC(=O)c1ccc(N2CCC(N3CCC(c4ccc(COC)c(=O)[nH]4)C3)CC2)cn1 (single isomer, unassigned) [Compound 207a]	+++ (+++ indicate a value of at least 100)	Kd [2, 4]: < 10 nM
< 10	< 10	CNC(=O)c1ccc(N2CCC(N3CCC(c4nc5c(c(C(F)(F)F)nn5C)c(=O)[nH]4)C3)CC2)cn1 (single isomer, unassigned) [Compound 187b]	− (− indicates a value of less than 10)	Kd [2, 4]: < 10 nM
100 to 1000	< 10	CNC(=O)c1ccc(N2CCC(N3CCC(c4ccc(CC(F)(F)F)c(=O)[nH]4)C3)CC2)cn1 (single isomer, unassigned) [Compound 188b]	+++ (+++ indicate a value of at least 100)	Kd [2, 4]: < 10 nM
1000 to 10000	< 10	CCc1ccc(C2CCN(C3CCN(c4ccc(C(=O)NC)nn4)CC3)C2)[nH]c1=O (single isomer, unassigned) [Compound 210b]	+++ (+++ indicate a value of at least 100)	Kd [2, 4]: < 10 nM
> 10000	< 10	CNC(=O)c1ccc(N2CCC(N3CCCC(c4nc5ccccc5c(=O)[nH]4)C3)CC2)c(C)n1 (single isomer, unassigned) [Compound 131b]	+++ (+++ indicate a value of at least 100)	Kd [2, 4]: < 10 nM
1000 to 10000	100 to 1000	CNC(=O)c1ccc(N2CCC(N3CCCC(c4nc5c(c(=O)[nH]4)CCCC5)C3)CC2)cn1 (single isomer, unassigned) [Compound 146a]	− (− indicates a value of less than 10)	Kd [2, 4]: 100 to 1000 nM
100 to 1000	10 to 100	CNC(=O)c1ccc(N2CCC(N3CCC(c4nc5c(F)cccc5c(=O)[nH]4)C3)CC2)cn1 (single isomer, unassigned) [Compound 121a]	+ (+ indicates a value of 10 to less than 50)	Kd [2, 4]: 10 to 100 nM
	1000 to 10000	CNC(=O)c1ccc(N2CCC(N3CCCC(c4nc5ccccc5c(=O)[nH]4)C3)CC2)c(C)n1 (stereo not drawn) [Compound 131]		
